{
  "source": "patent US8268816B2",
  "about": "“Compounds for modulating integrin CD11b/CD18” (priority 2006, dated 2012)",
  "key": {"[1]": {"tested_on": "thioglycolate-induced peritonitis mouse model", "assay": "thioglycolate-induced peritonitis, neutrophil influx into the peritoneum", "format": "in vivo, C57BL6 mice", "settings": "4 μg i.v. about 5 min after i.p. 4% thioglycolate, lavage at 12 h, flow cytometry", "experimental": "The wild-type (WT) C57BL6 mice of approximately six weeks of age were purchased from Charles River Labs (Boston, Mass.). Mice were injected intraperitoneally with 1 mL of 4% w/v sterile thioglycolate (TG) (Sigma, St. Louis, […].) in PBS. Control mice were injected with PBS alone. Approximately five minutes after TG injection, 4 μg each of compounds IMB-8, -6 or -11 were administered in 0.5 mL PBS through a tail vein injection. Twelve hours post-injection, the percentage of infiltrated neutrophils in the peritoneal lavage was determined using flow cytometry. Cells from the lavage fluid were labeled with FITC-labeled anti-mouse GR1 and PE-labeled anti-mouse CD11b antibodies (BD Pharmingen, Jan Jose, Calif.) and analyzed using FACS Calibur flow cytometer."}, "[2]": {"target": "T1, integrin CD11b/CD18 (Homo sapiens, UniProt P05107+P11215)", "T1 construct": "expressed in transfected cells", "T1 sequence (P05107 23-769, other chains not shown)": "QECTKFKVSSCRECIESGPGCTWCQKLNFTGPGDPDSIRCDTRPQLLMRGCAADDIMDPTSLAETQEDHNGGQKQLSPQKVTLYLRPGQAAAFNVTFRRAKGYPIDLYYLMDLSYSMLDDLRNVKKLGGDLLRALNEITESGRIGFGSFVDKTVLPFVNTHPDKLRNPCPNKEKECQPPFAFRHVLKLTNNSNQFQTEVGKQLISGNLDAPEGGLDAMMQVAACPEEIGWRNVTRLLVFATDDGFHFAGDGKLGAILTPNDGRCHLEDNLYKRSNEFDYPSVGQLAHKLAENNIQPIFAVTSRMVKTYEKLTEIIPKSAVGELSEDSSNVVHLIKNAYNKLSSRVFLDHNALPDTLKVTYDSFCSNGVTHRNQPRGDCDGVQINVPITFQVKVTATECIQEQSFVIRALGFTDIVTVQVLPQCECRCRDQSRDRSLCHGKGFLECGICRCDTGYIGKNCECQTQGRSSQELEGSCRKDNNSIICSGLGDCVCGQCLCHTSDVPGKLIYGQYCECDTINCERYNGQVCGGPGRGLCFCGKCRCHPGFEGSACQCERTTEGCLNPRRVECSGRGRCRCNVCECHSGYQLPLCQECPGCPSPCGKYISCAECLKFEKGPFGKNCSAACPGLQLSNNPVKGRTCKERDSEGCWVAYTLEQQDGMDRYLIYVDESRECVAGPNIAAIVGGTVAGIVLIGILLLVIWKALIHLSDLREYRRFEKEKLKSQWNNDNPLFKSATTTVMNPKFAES", "assay": "no-wash cell adhesion assay for agonists: K562 CD11b/CD18 cells on fibrinogen in TBS++", "format": "cell-based", "experimental": "Maxisorp microtiter plates (96- and 384-well) were coated with 1-20 μg/mL fibrinogen (Fg) ligand in PBS^++ overnight at 4° C. Subsequently, the Fg-coated wells were washed with TBS and non-specific sites were blocked by incubation with 2% non-fat milk in TBS at room temperature for 30 min. Next, the wells were washed three times with TBS and the coated microtiter plates were used in the HTS assays.\nAll the adhesion assays were carried out in the screening facility at the Institute of Chemistry and Cell Biology (ICCB), Harvard Medical School using the available small molecule libraries and equipment. Actimol Timtec 1 small molecule library (6,612 compounds) has been previously described (http://iccb.med.harvard.edu/screening/compound_libraries). The small molecule library is stocked in 384-well plates at −80° C. and as sealed plates, with each well's containing a unique compound dissolved in DMSO at approximately 5 mg/mL. […] Adherent cells were quantitated using either cell viability measuring reagents or automated imaging (see below).\nFor quantitation of adherent cells using a cell viability measuring kit (such as MTS-based CellTiter-One (Promega), CyQuant (Molecular Probes) or Luciferase-based CellTiter-Glo (Promega)), the non-adherent cells were removed by complete aspiration using an automated liquid handling machine (ELx405, Bio-Tek Instruments, VT) and the assay reagent added according to manufacturer's instructions. For automated imaging based quantitation of adherent cells, the non-adherent cells were fixed by adding a small volume of formaldehyde (1.1% v/v final concentration) and the plates were kept inverted for an additional 1 h. Upon cell fixation, the wells were washed with TBS using automated liquid handling machine (ELx405) and the adherent cells were fluorescently labeled with DAPI (0.5 μM final in TBS with 0.1% TritonX-100) and quantitated using automated microscope (see below).\nCellWorx automated microscope (Cellomics, Pa.) was set at 0.3 s exposure using DAPI filter set to capture 1-3 images per well. […] Data output files were analyzed using MS Excel. […]"}, "[3]": {"target": "T2, integrin CD11a/CD18 (Homo sapiens, UniProt P05107+P20701)", "T2 construct": "expressed in transfected cells; host or cells: K562 cells stably expressing CD11a/CD18", "T2 sequence (P20701 26-1170)": "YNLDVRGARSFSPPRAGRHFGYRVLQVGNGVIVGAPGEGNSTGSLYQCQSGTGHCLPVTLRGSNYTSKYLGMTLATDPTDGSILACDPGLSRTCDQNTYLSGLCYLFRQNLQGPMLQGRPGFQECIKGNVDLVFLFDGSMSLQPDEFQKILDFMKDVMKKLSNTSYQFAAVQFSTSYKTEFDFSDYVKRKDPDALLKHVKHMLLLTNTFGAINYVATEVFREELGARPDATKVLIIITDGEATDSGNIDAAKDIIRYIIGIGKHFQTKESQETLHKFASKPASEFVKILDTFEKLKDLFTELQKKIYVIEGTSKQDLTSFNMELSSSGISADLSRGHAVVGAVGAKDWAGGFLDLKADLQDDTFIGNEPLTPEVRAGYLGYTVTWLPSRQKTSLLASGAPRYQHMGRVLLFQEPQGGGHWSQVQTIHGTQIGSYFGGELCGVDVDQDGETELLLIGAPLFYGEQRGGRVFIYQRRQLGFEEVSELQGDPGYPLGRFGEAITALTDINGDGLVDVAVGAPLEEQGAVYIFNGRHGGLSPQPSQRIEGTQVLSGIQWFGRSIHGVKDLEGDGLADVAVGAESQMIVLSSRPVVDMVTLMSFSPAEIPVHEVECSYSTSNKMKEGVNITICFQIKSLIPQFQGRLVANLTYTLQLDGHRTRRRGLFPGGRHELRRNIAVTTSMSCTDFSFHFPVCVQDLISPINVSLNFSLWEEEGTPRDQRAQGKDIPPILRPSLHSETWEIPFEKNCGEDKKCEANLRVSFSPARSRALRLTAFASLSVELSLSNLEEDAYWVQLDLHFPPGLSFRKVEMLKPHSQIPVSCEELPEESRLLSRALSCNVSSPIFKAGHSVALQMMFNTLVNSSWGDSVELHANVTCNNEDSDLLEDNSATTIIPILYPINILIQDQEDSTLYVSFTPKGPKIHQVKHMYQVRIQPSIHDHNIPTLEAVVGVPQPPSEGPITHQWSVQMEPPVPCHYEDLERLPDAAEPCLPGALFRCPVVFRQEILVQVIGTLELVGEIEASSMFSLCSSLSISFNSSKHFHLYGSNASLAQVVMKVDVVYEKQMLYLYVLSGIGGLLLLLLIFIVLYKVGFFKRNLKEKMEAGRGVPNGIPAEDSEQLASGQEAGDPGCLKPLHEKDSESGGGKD", "T2 sequence (P05107 23-769)": "as the sequence (P05107 23-769, other chains not shown) above", "assay": "adhesion of K562 CD11a/CD18 cells to ICAM1-Fc in TBS++", "format": "cell-based", "settings": "dose-response, increasing amounts of small molecule", "experimental": "Maxisorp microtiter plates (384-well) were coated with 1-20 μg/mL fibrinogen (Fg), 4 μg/mL iC3b or 0.375 μg/mL ICAM1-Fc ligands in PBS^++ overnight at 4° C.\nFor the adhesion assay in 384-well plates, the K562 cells were washed with TBS and cells (30,000/well) were transferred to the ligand-coated wells (Fg for CD11b/CD18 and ICAM1-Fc (R&D Systems, Minneapolis, Minn.) for CD11a/CD18) of microtiter plates in the assay buffer (TBS containing 1 mM each of Ca^2+ and Mg^2+ (TBS^++). Compounds were transferred to each well and the assay plates were incubated at 37° C. in the presence of small molecule compounds and were incubated with small molecules for 30 min. In order to dislodge the non-adherent cell, the assay plates were gently inverted and kept in the inverted position for 20 min at room temperature. Adherent cells were quantified using either cell viability measuring reagents or automated imaging (see below)."}},
  "data": [
    {"molecule": "O=C1CSC(NC(=O)N2c3ccccc3Sc3ccccc32)=N1", "note": "[Compound 11]", "values": [
      {"measurement": "neutrophil influx into the peritoneum due to TG injection", "setting": "[1]", "value": "reduce leukocyte recruitment"},
      {"measurement": "neutrophil influx into the peritoneum due to TG injection", "setting": "[1]; listed as compound 11", "value": "remarkable decrease"},
      {"measurement": "selectivity for integrin CD11b/CD18 over integrin CD11a/CD18 in cell adhesion", "setting": "[2]; K562 CD11b/CD18 on fibrinogen versus K562 CD11a/CD18 on ICAM1", "value": "selectively increased adhesion"}
    ]},
    {"molecule": "N=C1SC(=Cc2ccco2)C(=O)N1c1nccs1", "note": "[Compound 9]", "values": [
      {"measurement": "EC50", "setting": "[2]; secondary screen, read-out: EC50, concentration required for half-maximal increase in cell-adhesion", "value": "~6.7", "unit": "µM"}
    ]},
    {"molecule": "Cc1ccccc1N1C(=O)/C(=C/C=C/c2ccccc2)SC1=S", "note": "[IMB-10, reference compound]", "values": [
      {"measurement": "adhesion of K562 cells stably expressing integrin CD11a/CD18 to ICAM1", "setting": "[3]", "value": "increased equally well the adhesion"},
      {"measurement": "adhesion of K562 cells stably expressing integrin CD11b/CD18 to fibrinogen", "setting": "[2]; dose-response, increasing amounts of small molecule, TBS++", "value": "increased equally well the adhesion"}
    ]}
  ]
}
